Test results: PubChem BioAssay (NCI)
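Following 48 hours of exposure in 96-well plates, responses at five concentrations were used to interpolate endpoints linearly. GI50: concentration for 50% inhibition of growth. TGI denotes the concentration required for complete inhibition of growth.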 *1 amine or outer side, *2 acyl side, *3 side chain or, on linkers, in order; H or OH if unused. Where a SMILES comes first, the peptide text is derived from it. Bridges are numbered along the chain shown (N, C = ends). [ ]: non-standard residue; d: D form. The star is where a group is joined. ξ: configuration not given here. Phe(3,5-F2) = N[C@@H](Cc1cc(F)cc(F)c1)C(=O)O; ξThr(3S) = C[C@H](O[*:3])C(N[*:1])C(=O)[*:2]; X25 = C[C@H]1OCCN([*:1])[C@@H]1C(=O)[*:2]; Phe(3-F) = N[C@@H](Cc1cccc(F)c1)C(=O)O; Pro(4R-Me) = C[C@H]1CN[C@H](C(=O)O)C1; aThr = C[C@H](O)[C@H](N)C(=O)O; X24 = O=S(=O)(F)Oc1ccc(N*)cc1; Pip = O=C(O)[C@@H]1CCCCN1; X8 = CCc1ccc(N*)c(F)c1; CO = O=C([*:1])[*:2]

What follows are molecules tested on MDA-MB-468 breast (assay: growth of human tumour cells (NCI), 48 h).

| Compound | GI50 | TGI |
| --- | --- | --- |
| COC(=O)c1ccc(NC(N)=NCCC(C)(C)c2ccc(C(F)(F)F)cc2)nc1 | 1.1 µM | 2.79 µM |
| O=C(Nc1ccc(-n2cc(-c3ccncc3)c(-c3ccc(Cl)c(O)c3)n2)cc1)c1cc(C(F)(F)F)cc(C(F)(F)F)c1 | 2.16 µM | 7.6 µM |
| COc1cccc(-c2cc(=O)c3cc(N4CCN(C)CC4)ccc3[nH]2)c1 | 6.03 µM | > 100 µM |
| N#CN1CC[C@H](C(=O)Nc2ncc(-c3ccccc3)s2)C1 | 0.177 µM | 0.423 µM |
| N#Cc1cc(F)cc(Oc2ccc(S(=O)(=O)C(F)F)c3c2CC(F)(F)[C@H]3O)c1 | 16.6 µM | 66.9 µM |
| O=c1[nH]c2ccccc2cc1-c1nnc(Cc2ccccc2)o1 | 2.29 µM | 9.87 µM |
| CCOC(=O)[C@@H](C)C[C@H](Cc1ccccc1)NC(=O)c1csc([C@@H](C[C@H](C(C)C)N(C)C(=O)CNC(=O)[C@H]2CCCCN2C)OC(C)=O)n1 | 0.216 µM | 0.736 µM |
| COc1ccc(-c2cnc(-c3ccncc3-c3cccc(OC)c3)o2)cc1 | 0.178 µM | 10.4 µM |
| C[C@@H]1C[C@H]2C(=O)O[C@@H](C)C(NC(=O)[C@H](Cc3cc(F)cc(F)c3)NC(=O)Nc3ccc(OS(=O)(=O)F)cc3)C(=O)N3CCC[C@H]3C(=O)N3CCO[C@H](C)[C@H]3C(=O)N[C@@H](CO)C(=O)N2C1 (stereo partly drawn) ({X24-CO}-[Phe(3,5-F2)][ξThr(3S)]P[X25]S[Pro(4R-Me)]; ester 2-C) | 0.416 µM | 5.81 µM |
| CN(C)C1C(=O)C(C(N)=O)=C(O)C2(O)C(=O)C3=C(O)c4c(O)cccc4C(C)(O)C3CC12.[Cl][Sb]([Cl])[Cl] (centres undefined) | 2.5 µM | 8.83 µM |
| O=c1[nH]c(=S)[nH]c(O)c1/C=C1\C=Nc2ccccc21 | 14.4 µM | 31.1 µM |
| NC(=O)c1nc(-c2c(F)cccc2Cl)oc1Nc1ccc(C(=O)N2CCOCC2)cc1 | 4.33 µM | 36.7 µM |
| CCN(CC)CCCC(Nc1c2ccc(Cl)cc2nc2ccc(OC)cc12)c1ccc(Cl)cc1 (centres undefined) | 0.352 µM | 1.19 µM |
| C#COc1cccc(Nc2ncnc3cc(NC(=O)[C@@H](C)Cl)ccc23)c1 | 13.5 µM | 50.8 µM |
| COc1cc(OC)c(S(N)(=O)=O)cc1C(=O)/C=C/c1ccc(C)cc1 | 1.96 µM | 7.03 µM |
| CC[n+]1c(-c2ccccc2)c2cc(N)ccc2c2ccc(N)cc21 | 0.16 µM | 0.609 µM |
| O=C1Nc2ccc(-c3cccnc3)cc2/C1=C/c1cc(Br)c(O)c(Br)c1 | 6.02 µM | 16.1 µM |
| O=C(CI)NC(=O)NC(=O)NCc1ccccc1 | 2.12 µM | 4.66 µM |
| COC(=O)[C@]12CC[C@@H](C)[C@H](C)[C@@H]1C1=CC[C@@H]3[C@@]4(C)C(C=O)=C[C@@](C)(COS(C)(=O)=O)C4=CC[C@@]3(C)[C@]1(C)CC2 | 0.247 µM | 0.752 µM |
| Cc1ccc(C(=O)Nc2ccc(Oc3cc4cnn(C)c4cc3-c3cn[nH]c3)c(F)c2)c(=O)n1-c1ccc(F)cc1 | 3.2 µM | > 100 µM |
| C[C@]12CCc3nc(Nc4ccc(O)cc4)sc3C1=CC[C@@H]1[C@@H]2CC[C@]2(C)/C(=N/NC(N)=S)CC[C@@H]12 | 1.3 µM | 3.02 µM |
| COc1ccc([C@@]23Oc4cc(OC)cc(OC)c4[C@]2(O)[C@H](O)[C@H](C(=O)N(C)C)[C@H]3c2ccccc2)cc1 | 0.0151 µM | 0.141 µM |
| CCOC(=O)c1cc(C(=O)c2ccc(OC)c(OC)c2)n2c1ccc1ccc3cccnc3c12 | 2.83 µM | > 100 µM |

| Compound | GI50 | TGI |
| --- | --- | --- |
| O=C(NNc1nc2cc(F)ccc2n2c(CN3CCC(O)C3)ccc12)c1cnccn1 (centres undefined) | 0.815 µM | 7.63 µM |
| O=C(Nc1nc2ccc(S(=O)(=O)Nc3ccc(C4(C(F)(F)F)CC4)cc3)cc2[nH]1)c1cnccn1 | 0.515 µM | 5.74 µM |
| CCc1ccc(Oc2c(-c3ccc(OCc4ccc(Cl)cc4)cc3O)nn(C)c2C(F)(F)F)cc1 | 0.337 µM | 1.62 µM |
| COc1cc([C@@H]2c3cc4c(cc3[C@H](SC(=N)N)[C@H]3COC(=O)[C@H]23)OCO4)cc(OC)c1OC | 0.106 µM | 2.57 µM |
| S=C(Sc1ccc(Cl)cc1)Sc1ccc(Cl)cc1 | 2.3 µM | 6.9 µM |
| OCc1ccc(-c2ccc(-c3ccc(CO)o3)o2)o1 | 0.764 µM | 3.05 µM |
| Nc1c(C(=O)Nc2ccccc2)sc2nc3c(cc12)C(=O)CCC3 | 0.161 µM | 0.611 µM |
| CCc1ccc(NC(=O)N[C@@H](Cc2cccc(F)c2)C(=O)N[C@@H]2C(=O)N3CCC[C@H]3C(=O)N3CCCC[C@H]3C(=O)N[C@@H](C)C(=O)N3C[C@H](C)C[C@H]3C(=O)O[C@H]2C)c(F)c1 ({X8-CO}-[Phe(3-F)][aThr]P[Pip]A[Pro(4R-Me)]; ester 2-C) | 0.129 µM | 0.799 µM |
| O=C(Nc1ccc(-n2cc(-c3ccncc3)c(-c3ccc(O)c(Cl)c3)n2)cc1)Nc1cc(C(F)(F)F)cc(C(F)(F)F)c1 | 3.28 µM | 13.2 µM |
| CC(=O)Nc1cccc(C#Cc2cncnc2Nc2ccc(OCc3cccc(F)c3)c(Cl)c2)c1 | 1.14 µM | 5.67 µM |
| Nc1ncnc2c1c(-c1ccc(Oc3ccccc3)cc1)nn2CC1SSCC1O (centres undefined) | 0.801 µM | 2.02 µM |
| Cc1ccccc1Nc1cc(O)c2c(=O)cc(-c3ccccc3)oc2c1 | 0.379 µM | 3.03 µM |
| CN(C)CCNC(=O)Nc1ccc(N(C)c2ccnc(Nc3ccc(CS(C)(=O)=O)cc3)n2)cc1 | > 13.3 µM | > 25 µM |
| C/C(=N/NC(N)=S)c1ccc(Nc2nc(SCC(C)C)nc(-c3ccc(F)cc3)c2C#N)cc1 | 1.06 µM | 7.7 µM |
| Cc1ccc2ccc3c4ccccc4ccc3c2c1 | 16.1 µM | 40.4 µM |
| Cn1cc(-c2ccc3ncc(-c4ccc(CC(=O)Nc5cc(C(C)(C)C)nn5C)cc4)cc3c2)cn1 | 0.799 µM | > 20 µM |
| CCN1C(=O)N(CC)C2C1NC(=S)N2/N=C/C=C/c1ccccc1 (centres undefined) | 0.0546 µM |  |
| C/C(=C/CCC(C)[C@@H]1CC[C@]2(C)C3=C(CC[C@@]12C)[C@@]1(C)CCC(=O)C(C)(C)[C@@H]1CC3)C(=O)O (some centres undefined) | 1.11 µM | 2.71 µM |
| Cc1cc(NC(=O)NC(=O)c2ccccc2NC(=O)CN(C)C)ccc1Oc1ncc(Br)cn1 | 3.62 µM | > 100 µM |
| CO[C@H]1C(=O)[C@]2(C)[C@@H](OC)C[C@H]3OC[C@@]3(OC(C)=O)[C@H]2[C@H](OC(=O)c2ccccc2)[C@]2(O)C[C@H](OC(=O)[C@H](O)[C@@H](NC(=O)OC(C)(C)C)c3ccccc3)C(C)=C1C2(C)C | < 0.01 µM | 0.419 µM |
| NC1=NC(c2ccccc2Cl)c2c(n[nH]c2N)N1 (centres undefined) | 11.1 µM | 99.6 µM |
| CN(C)CCCOc1ccc(NC2=C(Cl)C(=O)C(Nc3ccc(OCCCN(C)C)cc3)=C(Cl)C2=O)cc1 | 0.36 µM | 1.26 µM |
